Assay results from patent publication US20030225003A1, “Antimicrobial therapeutic compositions for oral and topical use” (priority 2002, published 2003).
Entries after “also recorded” stand apart in the source; their conditions may differ.

Key:
[1] = cited from earlier work
periodontal disease = test: Effect of orally applied menthocarvol solution on periodontal disease; type: in vivo, human
Protocol: A study on three subjects was performed to test the effectiveness of orally applied ointments containing menthocarvol to treat periodontal disease in humans. The preliminary formulation used was first was a 3% solution of menthocarvol followed by treatment with a 0.6% solution, administered twice a week for three months. The treatment was given with a syringe and applied orally to the affected areas between the teeth at the gum line. […] This phenomenon disappeared in approximately two hours.

chronic fatigue syndrome = test: Effect of menthocarvol (oral capsule or topical ointment) on chronic fatigue; type: in vivo, human
Protocol: (§1) In one embodiment menthocarvol was made by reacting carvacrol with hydrogen under a nitrogen atmosphere in the presence of platinum, as a catalyst, to form menthocarvol. The menthocarvol was administered orally as capsules and topically as ointments to human volunteers to establish that the preliminary preferred formulation functioned to cure specific disease conditions.
The presence of bacteria ([…]), parasites (entamoeba gingivalis, or trichomonas tenax) and/or fungi (Candida, or Aspergillus species) in the mouth, nose, or sinus cavities is often accompanied by a history of generalized malaise, fatigue, and frequent headaches, frequently referred to as general fatigue syndrome. Laboratory testing for pathogens is usually negative. People suffering from fatigue syndrome typically function at a substantially lower level of activity than they were capable of before the onset of fatigue symptoms. Fatigue is not improved by bed rest and may be exacerbated by physical or mental activity. Moreover, the presence of some microorganisms in the stomach (i.e. Helicobacter pylori) and bowels, especially in diverticulas (outpouchings of the intestinal mucosa), is often accompanied by malaise and headache.
In the United States, colonic diverticula occurs in approximately 50% of individuals older than 60 years of age. Treatment with menthocarvol of volunteers suffering from this chronic fatigue syndrome was conducted. The menthocarvol therapy was administered in an oral dose of a single 250 mg capsule (17.5 mg active ingredient) or 500 mg capsule (35 mg active ingredient). Two of the subjects, who had localized pain in an extremity, were treated topically with menthocarvol in an ointment (3% active ingredient in lanolin oil). A total of six active individuals complaining of fatigue syndrome participated in this study.

diarrhea = test: Effect of menthocarvol capsules on patients with diarrhea; type: in vivo, human; details: for time to complete recovery: with oral rehydration
Protocol: as §1
Four human subjects were selected for this study with menthocarvol. In this study, the diarrhea symptoms were likely, from either acute bacterial infectous causes or food poisoning. The menthocarvol was administered orally in the form of capsules. Each 500 mg capsule contained 35 mg of the active ingredient. The therapy for each subject was usually oral administration of two 500 mg capsules.

[2] = six individuals, oral and topical formulations
[3] = four patients, two 500 mg capsules orally

SMILES | solubility in lipids [1] | local side effect (tingling sensation) (periodontal disease; 0.6% solution) | infection and observable periodontal disease (periodontal disease; 0.6% solution only, same three patients) | local side effect on gums and tongue (periodontal disease; 3% solution) | necrotic effect on the epithelial cells lining the mouth cavity (periodontal disease; 3% solution) | time until the tingling sensation disappeared (periodontal disease; 3% solution) | inflammation of gums (periodontal disease; 3% solution applied at the gum line, three patients) | effect on fatigue syndrome symptoms (chronic fatigue syndrome; Case 4, oral 500 mg capsule (35 mg active ingredient) after breakfast for five days) | effect on fatigue syndrome symptoms (chronic fatigue syndrome; single cases, oral 250 mg capsule (17.5 mg active ingredient) after breakfast for five or ten days) | adverse side effects (chronic fatigue syndrome; single cases, oral 250 mg or 500 mg capsule after breakfast for five days) | effect on localized pain in an extremity (chronic fatigue syndrome; single cases, topical cream, 3% active ingredient in lanolin oil, applied before exercise) | effect on fatigue and pain, all cases (chronic fatigue syndrome; [2]) | unpleasant or adverse side effects, all subjects (chronic fatigue syndrome; [2]) | time to complete recovery (diarrhea; Case 3, two 500 mg capsules orally) [h] | cure of diarrhea, all four patients (diarrhea; [3]) | unpleasant or adverse side effects (diarrhea; [3]) | time to complete recovery (diarrhea; single cases, two 500 mg capsules orally)
CC1CCC(C(C)C)C(O)C1 (stereo not drawn) [menthol, 1-Methyl-4-isopropyl cyclohexane-3-ol, reference compound] | soluble in lipids | – | – | – | – | – | – | – | – | – | – | – | – | – | – | – | –
CC(C)C1CCC(C)C(O)C1 (stereo not drawn) [menthocarvol, hexahydrocarvacrol] | – | This side effect was not observed | some improvement | a temporary tingling sensation on the gums | no observable necrotic effect | approximately two | a marked improvement in the inflammation of their gums was observed | the fatigue and muscle soreness disappeared | the symptoms of malaise and unrefreshing sleep disappeared; also recorded: The sore throat and pain disappeared after five days of treatment; also recorded: the symptoms of fatigue and headache were relieved | No adverse side effects were reported; also recorded: No adverse side affects were reported | The signs of leg and foot muscle fatigue disappeared after the tenth treatment; also recorded: The pain and swelling was significantly reduced after six applications | positive effects on the fatigue and pain | No subjects complained of unpleasant or adverse side effects | 24 | the diarrhea was cured quickly | None of the patients reported unpleasant or adverse side effects | three and two
Cc1ccc(C(C)C)cc1O [carvacrol, 5-isopropyl-2-methylphenol] | soluble in lipids | – | – | – | – | – | – | – | – | – | – | – | – | – | – | – | –
